# Laboratory results as given in patent US12459974B2, “Bicyclic peptide ligands specific for Nectin-4” (priority 2018, dated 2025).
# *1 amine or outer side, *2 acyl side, *3 side chain or, on linkers, in order; H or OH if unused. Where a SMILES comes first, the peptide text is derived from it. Bridges are numbered along the chain shown (N, C = ends). Roman numbers before positions name the chains, in order. [ ]: non-standard residue; d: D form. The star is where a group is joined. ξ: configuration not given here. TATA = O=C(CC[*:1])N1CN(C(=O)CC[*:2])CN(C(=O)CC[*:3])C1; Dolaproine = CO[C@@H]([C@@H]1CCCN1)[C@@H](C)C(=O)O; X1 = CC[C@H](C)C(C(CC(=O)[*:2])OC)N(C)[*:1]; 1Nal = N[C@@H](Cc1cccc2ccccc12)C(=O)O; X3 = O=C(CCCC(=O)[*:2])NCCC(=O)[*:1]; PABC = O=C(OCc1ccc(N[*:1])cc1)[*:2]; Hyp = O=C(O)[C@@H]1C[C@@H](O)CN1; hArg = N=C(N)NCCCC[C@H](N)C(=O)O; Cit = NC(=O)NCCC[C@H](N)C(=O)O; X2 = CC(N*)[C@@H](O)c1ccccc1; ξNMeV = CNC(C(=O)O)C(C)C; ξV = CC(C)C(N)C(=O)O; Sar = CNCC(=O)O
# Columns and labels:
# [1] = test system: HT-1376 xenograft; experiment: Example 2: in vivo efficacy in HT-1376 xenograft (bladder cancer model) in CB17-SCID mice
# Experimental: The major endpoint was to see if the tumor growth could be delayed or mice could be cured. Tumor volume was measured three times weekly in two dimensions using a caliper, and the volume was expressed in mm^3 using the formula: V=0.5 a×b^2 where a and b are the long and short diameters of the tumor, respectively. The tumor size was then used for calculations of T/C value. The T/C value (in percent) is an indication of antitumor effectiveness; T and C are the mean volumes of the treated and control groups, respectively, on a given day. TGI was calculated for each group using the formula: TGI (%)=[1−(Ti−T0)/(Vi−V0)]×100; Ti is the average tumor volume of a treatment group on a given day, T0 is the average tumor volume of the treatment group on the day of treatment start, Vi is the average tumor volume of the vehicle control group on the same day with Ti, and V0 is the average tumor volume of the vehicle group on the day of treatment start.
# A one-way ANOVA was performed to compare tumor volume among groups, and when a significant F-statistics (a ratio of treatment variance to the error variance) was obtained, comparisons between groups were carried out with Games-Howell test. […] P<0.05 was considered to be statistically significant.
# • Species: Mus Musculus • Strain: CB17-SCID • Age: 6-8 weeks • Sex: female • Body weight: 18-22 g • Number of animals: 21-41 mice plus spare • Animal supplier: Shanghai LC Laboratory Animal Co., LTD.
# The HT-1376 tumor cells were maintained in vitro as a monolayer culture in EMEM medium supplemented with 10% heat inactivated fetal bovine serum at 37° C. in an atmosphere of 5% CO2 in air. The tumor cells were routinely subcultured twice weekly by trypsin-EDTA treatment.
# Each mouse was inoculated subcutaneously at the right flank with HT-1376 tumor cells (5×10^6) in 0.2 ml of PBS with matrigel (1:1) for tumor development. Animals were randomized when the average tumor volume reached 153-164 mm^3.
# Tumor growth inhibition rate for Test articles in the HT-1376 xenograft model was calculated based on tumor volume measurements at day 21 after the start of treatment.
# [2] = test system: HT-1376 xenograft; experiment: Example 9.3: in vivo efficacy in HT-1376 xenograft in CB17-SCID mice; set-up: species or system Mus Musculus; conditions: for TGI / Tumor volume (TV) / Tumor volume / T/C: day 14; for Tumor volume trace over time: mean; for Tumor volume: mean ± SEM; for T/C: treated/control group average tumor volume
# [3] = 3 mg/kg biw, day 21, groups 8-17
# [4] = 3 mg/kg qw, day 21, groups 8-17
# [5] = 5 mg/kg qw, day 21, groups 8-17
structure (smiles),measurement,setting,value
"CC[C@H](C)C(C(CC(=O)N1CCC[C@H]1[C@H](OC)[C@@H](C)C(=O)NC(C)[C@@H](O)c1ccccc1)OC)N(C)C(=O)[C@@H](NC(=O)C(C(C)C)N(C)C(=O)OCc1ccc(NC(=O)[C@H](CCCNC(N)=O)NC(=O)C(NC(=O)CCCC(=O)NCCC(=O)N(C)CC(=O)N(C)CC(=O)N(C)CC(=O)N(C)CC(=O)N(C)CC(=O)N(C)CC(=O)N(C)CC(=O)N(C)CC(=O)N(C)CC(=O)N(C)CC(=O)N[C@H]2CSCCC(=O)N3CN4CN(C3)C(=O)CCSC[C@H](NC(=O)[C@@H](CC(=O)O)NC(=O)[C@H](Cc3cccc5ccccc35)NC(=O)[C@@H]3CCCN3C2=O)C(=O)N[C@@H](CCSC)C(=O)N[C@@H](CCCCNC(=N)N)C(=O)N[C@@H](CC(=O)O)C(=O)N[C@@H](Cc2c[nH]c3ccccc23)C(=O)N[C@@H](CO)C(=O)N[C@@H]([C@@H](C)O)C(=O)N2CCC[C@H]2C(=O)N2C[C@H](O)C[C@H]2C(=O)N[C@@H](Cc2c[nH]c3ccccc23)C(=O)N[C@H](C(N)=O)CSCCC4=O)C(C)C)cc1)C(C)C (stereo partly drawn) [BCY8245, MMAE-PABC-Cit-Val-Glutaryl-BCY8234] (I: [Sar][Sar][Sar][Sar][Sar][Sar][Sar][Sar][Sar][Sar]CP[1Nal][dD]CM[hArg]DWSTP[Hyp]WC-NH2 / II: [ξV][Cit][PABC][ξNMeV]V[X1][Dolaproine]-X2; linker I:11-I:15-I:25 via TATA; linker I:N-II:N via X3)",antitumor activity (in words),[1]; 1 mg/kg,slight antitumor activity
same,TGI,[1]; [3],72.3%
same,Tumor volume (TV),[1]; [3],407 mm^3
same,TGI,[1]; [4],50.9%
same,Tumor volume (TV),[1]; [4],603 mm^3
same,TGI,[1]; [5],66.0%
same,Tumor volume (TV),[1]; [5],465 mm^3
same,Tumor volume,"[1]; 1/3 mpk, qw, iv (1 mg/kg first week, 3 mg/kg following 2 weeks), day 0 after start of treatment (Table 14)",164 ± 16 mm^3
same,Tumor volume,"[1]; 1/3 mpk, qw, iv (1 mg/kg first week, 3 mg/kg following 2 weeks), day 2 (Table 14)",184 ± 12 mm^3
same,Tumor volume,"[1]; 1/3 mpk, qw, iv (1 mg/kg first week, 3 mg/kg following 2 weeks), day 4 (Table 14)",206 ± 14 mm^3
same,Tumor volume,"[1]; 1/3 mpk, qw, iv (1 mg/kg first week, 3 mg/kg following 2 weeks), day 7 (Table 14)",265 ± 21 mm^3
same,Tumor volume,"[1]; 1/3 mpk, qw, iv (1 mg/kg first week, 3 mg/kg following 2 weeks), day 9 (Table 14)",291 ± 10 mm^3
same,Tumor volume,"[1]; 1/3 mpk, qw, iv (1 mg/kg first week, 3 mg/kg following 2 weeks), day 11 (Table 14)",281 ± 28 mm^3
same,Tumor volume,"[1]; 1/3 mpk, qw, iv (1 mg/kg first week, 3 mg/kg following 2 weeks), day 14 (Table 14)",335 ± 16 mm^3
same,Tumor volume,"[1]; 1/3 mpk, qw, iv (1 mg/kg first week, 3 mg/kg following 2 weeks), day 16 (Table 14)",354 ± 11 mm^3
same,Tumor volume,"[1]; 1/3 mpk, qw, iv (1 mg/kg first week, 3 mg/kg following 2 weeks), day 18 (Table 14)",309 ± 19 mm^3
same,Tumor volume,"[1]; 1/3 mpk, qw, iv (1 mg/kg first week, 3 mg/kg following 2 weeks), day 21 (Table 14)",347 ± 14 mm^3
same,T/C,"[1]; 3 mpk, biw (Table 17)",38.1%
same,TGI,"[1]; 3 mpk, biw (Table 17)",72.3%
same,Tumor volume,"[1]; 3 mpk, biw, iv, day 0 after start of treatment (Table 15)",154 ± 30 mm^3
same,Tumor volume,"[1]; 3 mpk, biw, iv, day 2 (Table 15)",248 ± 58 mm^3
same,Tumor volume,"[1]; 3 mpk, biw, iv, day 5 (Table 15)",203 ± 15 mm^3
same,Tumor volume,"[1]; 3 mpk, biw, iv, day 7 (Table 15)",273 ± 45 mm^3
same,Tumor volume,"[1]; 3 mpk, biw, iv, day 9 (Table 15)",356 ± 50 mm^3
same,Tumor volume,"[1]; 3 mpk, biw, iv, day 12 (Table 15)",391 ± 53 mm^3
same,Tumor volume,"[1]; 3 mpk, biw, iv, day 14 (Table 15)",407 ± 53 mm^3
same,Tumor volume,"[1]; 3 mpk, biw, day 14 values of Table 15, Mean ± SEM (Table 17)",407 ± 53 mm^3
same,T/C,"[1]; 3 mpk, qw (Table 17)",56.4%
same,TGI,"[1]; 3 mpk, qw (Table 17)",50.9%
same,Tumor volume,"[1]; 3 mpk, qw, iv, day 0 after start of treatment (Table 15, groups 8-17)",153 ± 26 mm^3
same,Tumor volume,"[1]; 3 mpk, qw, iv, day 2 (Table 15)",254 ± 53 mm^3
same,Tumor volume,"[1]; 3 mpk, qw, iv, day 5 (Table 15)",298 ± 69 mm^3
same,Tumor volume,"[1]; 3 mpk, qw, iv, day 7 (Table 15)",398 ± 61 mm^3
same,Tumor volume,"[1]; 3 mpk, qw, iv, day 9 (Table 15)",468 ± 73 mm^3
same,Tumor volume,"[1]; 3 mpk, qw, iv, day 12 (Table 15)",502 ± 67 mm^3
same,Tumor volume,"[1]; 3 mpk, qw, iv, day 14 (Table 15)",603 ± 76 mm^3
same,Tumor volume,"[1]; 3 mpk, qw, day 14 values of Table 15, Mean ± SEM (Table 17)",603 ± 76 mm^3
same,T/C,"[1]; 3 mpk, qw, day 21 (Table 16)",39.2%
same,TGI,"[1]; 3 mpk, qw, day 21 (Table 16)",74.5%
same,Tumor volume,"[1]; 3 mpk, qw, day 21, Mean ± SEM (Table 16)",347 ± 14 mm^3
same,T/C,"[1]; 5 mpk, qw (Table 17)",43.5%
same,TGI,"[1]; 5 mpk, qw (Table 17)",66.0%
same,Tumor volume,"[1]; 5 mpk, qw, iv, day 0 after start of treatment (Table 15)",153 ± 15 mm^3
same,Tumor volume,"[1]; 5 mpk, qw, iv, day 2 (Table 15)",237 ± 41 mm^3
same,Tumor volume,"[1]; 5 mpk, qw, iv, day 5 (Table 15)",228 ± 36 mm^3
same,Tumor volume,"[1]; 5 mpk, qw, iv, day 7 (Table 15)",317 ± 31 mm^3
same,Tumor volume,"[1]; 5 mpk, qw, iv, day 9 (Table 15)",394 ± 20 mm^3
same,Tumor volume,"[1]; 5 mpk, qw, iv, day 12 (Table 15)",438 ± 31 mm^3
same,Tumor volume,"[1]; 5 mpk, qw, iv, day 14 (Table 15)",465 ± 33 mm^3
same,Tumor volume,"[1]; 5 mpk, qw, day 14 values of Table 15, Mean ± SEM (Table 17)",465 ± 33 mm^3
same,efficacy (in words),[1]; after increasing dosage to 3 mg/kg from day 7,better efficacy
same,anti-tumour activity (in words),"[1]; mouse, in vivo",good anti-tumour activity
same,TGI,[2]; 3 mg/kg biw,72.3%
same,Tumor volume (TV),[2]; 3 mg/kg biw,407 mm^3
same,TGI,[2]; 3 mg/kg qw,50.9%
same,Tumor volume (TV),[2]; 3 mg/kg qw,603 mm^3
same,TGI,[2]; 5 mg/kg qw,66.0%
same,Tumor volume (TV),[2]; 5 mg/kg qw,465 mm^3
same,Tumor volume trace over time,"[2]; 3 mpk, biw, iv, day 0 after the start of treatment",154 mm^3
same,Tumor volume trace over time,"[2]; 3 mpk, biw, iv, day 2 after the start of treatment",248 mm^3
same,Tumor volume trace over time,"[2]; 3 mpk, biw, iv, day 5 after the start of treatment",203 mm^3
same,Tumor volume trace over time,"[2]; 3 mpk, biw, iv, day 7 after the start of treatment",273 mm^3
same,Tumor volume trace over time,"[2]; 3 mpk, biw, iv, day 9 after the start of treatment",356 mm^3
same,Tumor volume trace over time,"[2]; 3 mpk, biw, iv, day 12 after the start of treatment",391 mm^3
same,TGI,"[2]; 3 mpk, biw, iv",72.3%
same,Tumor volume,"[2]; 3 mpk, biw, iv",407 ± 53 mm^3
same,T/C,"[2]; 3 mpk, biw, iv",38.1%
same,Tumor volume trace over time,"[2]; 3 mpk, biw, iv, day 14 after the start of treatment",407 mm^3
same,Tumor volume trace over time,"[2]; 3 mpk, qw, iv, day 0 after the start of treatment",153 mm^3
same,Tumor volume trace over time,"[2]; 3 mpk, qw, iv, day 2 after the start of treatment",254 mm^3
same,Tumor volume trace over time,"[2]; 3 mpk, qw, iv, day 5 after the start of treatment",298 mm^3
same,Tumor volume trace over time,"[2]; 3 mpk, qw, iv, day 7 after the start of treatment",398 mm^3
same,Tumor volume trace over time,"[2]; 3 mpk, qw, iv, day 9 after the start of treatment",468 mm^3
same,Tumor volume trace over time,"[2]; 3 mpk, qw, iv, day 12 after the start of treatment",502 mm^3
same,TGI,"[2]; 3 mpk, qw, iv",50.9%
same,Tumor volume,"[2]; 3 mpk, qw, iv",603 ± 76 mm^3
same,T/C,"[2]; 3 mpk, qw, iv",56.4%
same,Tumor volume trace over time,"[2]; 3 mpk, qw, iv, day 14 after the start of treatment",603 mm^3
same,Tumor volume trace over time,"[2]; 5 mpk, qw, iv, day 0 after the start of treatment",153 mm^3
